We go through nine molecules from paper PMC3022755, “HP1 Recruits Activity-Dependent Neuroprotective Protein to H3K9me3 Marked Pericentromeric Heterochromatin for Silencing of Major Satellite Repeats” (PLoS ONE, 2011).

The subject of series [1] is three isoforms of HP1, HP1α HP1β and HP1γ, and CDYL1. As to the kind of experiment: H3 peptide pulldown of HeLa S3 nuclear extract, MS/MS identification. The class given is binding. The note with it: SDS-PAGE.
The test system of series [2] is FLAG-tagged ADNP. Kind of series: H3 peptide pulldown with TNT-expressed FLAG-tagged ADNP. The class given is binding. The note with it: TNT reticulocyte extract, western blot. (Immunoblotting shows a protein as a band on a membrane.)
The test system of series [3] is ADNP. As to the kind of experiment: H3 peptide pulldown of HeLa S3 nuclear extract, western blot. Type of series: binding. The note with it: immobilized H3 (aa 1-21) peptides on magnetic beads, monoclonal anti-ADNP.
The test system of series [4] is HP1 isoform proteins. The class given is binding, human.
Series [5] has as its system H4K20me3. Kind of series: H4K20me3 levels and distribution after ADNP knockdown. Type of series: cell-based, mouse. As to conditions: NIH3T3, ADNP knockdown; western blot and immunofluorescence.
Series [6] relates to HP1α, HP1β and HP1γ. As to the kind of experiment: HP1 distribution after ADNP knockdown. The class given is cell-based, mouse. The note with it: NIH3T3, ADNP knockdown; immunofluorescence.
Series [7] concerns major satellite repeat sequences. Kind of series: CpG methylation, Southern blot after TaiI digestion. The class given is cell-based, mouse. As to conditions: NIH3T3, ADNP knockdown.
Series [8] has as its system ADNP. Kind of series: siRNA knockdown, western blot. As to conditions: NIH3T3, vs scrambled siRNA and untransfected (mock). Type of series: cell-based, mouse.
Series [9] relates to major satellite repeats. As to the kind of experiment: Major satellite repeat transcripts, real time PCR. Type of series: cell-based, mouse. As to conditions: ADNP knockdown NIH3T3; relative to GAPDH; vs scrambled siRNA or mock; triplicate. A general note: In qPCR the cycle at which signal appears reflects the starting amount.
The subject of series [10] is H3K27me1. As to the kind of experiment: H3K27me1 levels and distribution after ADNP knockdown. Type of series: cell-based, mouse. As to conditions: NIH3T3, ADNP knockdown; western blot and immunofluorescence.
The subject of series [11] is H3K9me3. As to the kind of experiment: H3K9me3 levels and distribution after ADNP knockdown. The note with it: NIH3T3, ADNP knockdown; western blot and immunofluorescence. Type of series: cell-based, mouse.
Series [12] concerns recombinant HP1β. As to the kind of experiment: Fluorescence polarization binding assay. On the set-up: species or system human. As to conditions: fluorescein-labeled peptide, averaged from three independent titration reactions. For orientation: In fluorescence polarisation assays a small probe gives low polarisation when free and higher when bound to something large.
The subject of series [13] is HP1. Kind of series: ADNP peptide pulldown of HeLa S3 nuclear extract, western blot. The class given is binding.
For series [14], the system named is PxVxL. The note with it: ref [27]; cited from earlier work. An excerpt: (§1) We analyzed this recombinant, mutant HP1βprotein in H3K9me3 peptide pulldown experiments with wild type FLAG-tagged ADNP expressed in TNT reticulocyte extract (Figure 5D). W170A mutation had no effect on HP1β bi ...
For series [15], the system named is HP1 dimerization and H3K9me3. As to conditions: ref [27]; cited from earlier work.
Text: as §1

Series [16] deals with H3K9me3 peptide. Kind of series: H3K9me3 peptide pulldown with mutant HP1β. Type of series: binding. As to conditions: H3K9me3 peptides on magnetic beads; with ADNP-FLAG; western blot.
Series [17] has as its system wild type FLAG-tagged ADNP. As to the kind of experiment: H3K9me3 peptide pulldown, recruitment of ADNP by mutant HP1β. The class given is binding. As to conditions: compared to wild type HP1β; wild type FLAG-tagged ADNP in TNT reticulocyte extract; western blot.
The subject of series [18] is pericentromeric heterochromatin in NIH3T3 cells. Kind of series: Localization of CFP-ADNP constructs in living NIH3T3 cells. The class given is cell-based, mouse. The note with it: transient co-expression with RFP-HP1β; unfixed, living cells of low expression level; confocal.
Series [19] has the same test system. Kind of series: Localization of YFP-ADNP fusion proteins in living NIH3T3 cells. The class given is cell-based, mouse. The note with it: inducible stable NIH3T3 lines, unfixed; for localization to pericentromeric heterochromatin: Hoechst 33342.
Series [20] deals with H3K9me3 peptide. The class given is binding.

Where a chain is given by its changes, count along the chain named. In names and notes the source's numbering stands. Where no end group is shown, it is not given here. [ ]: non-standard residue; d: D form. The star is where a group is joined. Biotin = O=C1N[C@H]2[C@H](CS[C@H]2CCCCC(=O)*)N1; Lys(Me3) = C[N+](C)(C)CCCC[C@H](N)C(=O)O; d = 2'-deoxy (DNA)

Turning to “H3K9me3: H3 (aa 1-21) peptide trimethylated at lysine 9, used for pulldown”, in series [1], the “proteins specifically interacting with H3 tail depending on K9me3” value was “several known H3K9me3 interaction partners like the three isoforms of HP1”. For the same molecule, the “binding of ADNP to peptide” value in series [2] (co-incubated with recombinant HP1α) was “bound specifically to the H3K9me3 peptide”; in series [2] (co-incubated with recombinant HP1β), “bound specifically to the H3K9me3 peptide”; in [2] (co-incubated with recombinant HP1γ), “bound specifically to the H3K9me3 peptide”; in series [2] (without HP1) it was “did not bind to any of the differentially loaded beads”. Also, in series [3], the “enrichment of ADNP on peptide matrix” value was “specific enrichment of ADNP exclusively on the H3K9me3 matrix”. For the same molecule, the “recruitment of HP1 isoform proteins to peptide” value in series [4] is “concomitant with recruitment of the different HP1 isoform proteins to the H3K9me3 matrix”.

On to “ADNP siRNA: sense 5′ - [GAUUCUUAUGAGGCUAGGA] RNA [TT] DNA, antisense 5′ - [UCCUAGCCUCAUAAGAAUC] RNA [TT] DNA (RNA, 3' dTdT, backbone not given here) [sense 5′ - [GAUUCUUAUGAGGCUAGGA]; RNA [TT]; DNA, antisense 5′ - [UCCUAGCCUCAUAAGAAUC]; DNA]”, for which the “effects on levels and distribution of H4K20me3” value in [5] is listed as “no effects”. In addition, the “distribution of HP1α, HP1β and HP1γ” value in [6] was “appeared normal”. Further, in series [7], the “reduction of CpG methylation at major satellite repeats” value was “no reduction”. Also, the ADNP protein levels entry in series [8] is recorded as “significant reduction”. Also, in series [9], the “level of major satellite transcripts” value is reported as “elevated”. In addition, in series [10], the “effects on levels and distribution of H3K27me1” value is recorded as “no effects”. Further, the “effects on levels and distribution of H3K9me3” value in series [11] is recorded as “no effects”.

Take “EDDSYEAR[Lys(Me3)]SFLTKY [ADNPK767me3 (FP peptide), ADNPK767me3 peptide used for FP measurements]”: the HP1 binding result was “does not bind” in series [12] and “did not detect binding” in [12] (listed as methylated peptide spanning the ADNP ARKS region).

Turning to “Biotin-EDDSYEAR[Lys(Me3)]SFLTKYFNKQP [ADNPK767me3, methylated ADNP peptide used for pulldown]”, in series [13], the HP1 binding entry is listed as “does not bind”.

For “HP1β W170A: recombinant His6-HP1β with tryptophan 170 mutated to alanine”, the HP1-PxVxL interaction entry in series [14] is given as “abolish HP1-PxVxL interaction”. Besides, in series [15], the “HP1 dimerization and H3K9me3 binding” value was “without affecting HP1 dimerization and H3K9me3 binding”. Besides, in series [16], the “HP1β binding to H3K9me3 peptide” value was “no effect on HP1β binding to the H3K9me3 peptide”. Besides, the “recruitment of ADNP to H3K9me3 in presence of mutant HP1β” value in [17] is recorded as “severely impaired”.

B1: CFP-ADNP(701-846): CFP fusion of the ADNP homeodomain alone, containing NLS (protein, UniProt Q9Z103 701-846, looked up, fragment)
chain: APSRLNQSPGLAPVKRTYEQMEFPLLKKRKLEEDADSPSCFEEKPEEPVVLALDPKGHEDDSYEARKSFLTKYFNKQPYPTRREIEKLAASLWLWKSDIASHFSNKRKKCVRDCEKYKPGVLLGFNMKELNKVKHEMDFDAEWLFE
modifications: CFP fusion
notes: CFP fusion of the ADNP homeodomain alone, containing NLS
With B1, in series [18], the “localization to pericentromeric heterochromatin” value (“localization” below) is “co-localized with HP1β”.

B2: K767R: YFP-ADNP fusion protein with K767R mutation in ARKS motif (protein, UniProt Q9Z103 1-1108, looked up, variant K767R)
Activity-dependent …: MFQLPVNNLGSLRKARKTVKKILSDIGLEYCKEHIEDFKQFEPNDFYLKNTTWEDVGLWDPSLTKNQDYRTKPFCCSACPFSSKFFSAYKSHFRNVHSEDFENRILLNCPYCTFNADKKTLETHIKIFHAPNSSAPSSSLSTFKDKNKNDGLKPKQADNVEQAVYYCKKCTYRDPLYEIVRKHIYREHFQHVAAPYIAKAGEKSLNGAVSLGTNAREECNIHCKRCLFMPKSYEALVQHVIEDHERIGYQVTAMIGHTNVVVPRAKPLMLIAPKPQDKKGMGLPPRISSLASGNVRSLPSQQMVNRLSIPKPNLNSTGVNMMSNVHLQQNNYGVKSVGQSYGVGQSVRLGLGGNAPVSIPQQSQSVKQLLPSGNGRSFGLGAEQRPPAAARYSLQTANTSLPPGQVKSPSVSQSQASRVLGQSSSKPPPAATGPPPSNHCATQKWKICTICNELFPENVYSVHFEKEHKAEKVPAVANYIMKIHNFTSKCLYCNRYLPTDTLLNHMLIHGLSCPYCRSTFNDVEKMAAHMRMVHIDEEMGPKTDSTLSFDLTLQQGSHTNIHLLVTTYNLRDAPAESVAYHAQNNAPVPPKPQPKVQEKADVPVKSSPQAAVPYKKDVGKTLCPLCFSILKGPISDALAHHLRERHQVIQTVHPVEKKLTYKCIHCLGVYTSNMTASTITLHLVHCRGVGKTQNGQDKTNAPSRLNQSPGLAPVKRTYEQMEFPLLKKRKLEEDADSPSCFEEKPEEPVVLALDPKGHEDDSYEARRSFLTKYFNKQPYPTRREIEKLAASLWLWKSDIASHFSNKRKKCVRDCEKYKPGVLLGFNMKELNKVKHEMDFDAEWLFENHDEKDSRVNASKTVDKKHNLGKEDDSFSDSFEHLEEESNGSGSPFDPVFEVEPKIPSDNLEEPVPKVIPEGALESEKLDQKEEEEEEEEEDGSKYETIHLTEEPAKLMHDASDSEVDQDDVVEWKDGASPSESGPGSQQISDFEDNTCEMKPGTWSDESSQSEDARSSKPAAKKKATVQDDTEQLKWKNSSYGKVEGFWSKDQSQWENASENAERLPNPQIEWQNSTIDSEDGEQFDSMTDGVADPMHGSLTGVKLSSQQA
modifications: YFP fusion
notes: YFP-ADNP fusion protein with K767R mutation in ARKS motif
As for B2, the “localization” value in series [19] is recorded as “no effect on ADNP localization”.

B3: K767R mutant ADNP: FLAG-tagged ADNP, lysine 767 within the ARKS motif changed to arginine (protein, UniProt Q9Z103 1-1108, looked up, variant K767R)
Activity-dependent …: B2 Activity-dependent …
modifications: FLAG tag
notes: FLAG-tagged ADNP, lysine 767 within the ARKS motif changed to arginine
With B3, the “binding of ADNP protein to H3K9me3 peptide” value in series [20] is on record as “bound to H3K9me3 peptide in a HP1β dependent manner”.

B4: V821E: YFP-ADNP fusion protein with V821E mutation in PGVLL motif (protein, UniProt Q9Z103 1-1108, looked up, variant V821E)
Activity-dependent …: B2 Activity-dependent … with R767K, V821E
modifications: YFP fusion
notes: YFP-ADNP fusion protein with V821E mutation in PGVLL motif
With B4, the “localization” value in [19] is on record as “strong reduction of the ADNP signal at regions of pericentromeric heterochromatin”. The “residual signal at pericentromeric heterochromatin” value in series [19] (in all cells analyzed) is listed as “faint but significant signal”.
